Results on 10 compounds are retold here after BindingDB's records for doi:10.1021/jm991074s (University of Catania, 2000).

For orientation: Ki means the equilibrium dissociation constant of an inhibitor or competing ligand from its target. A lower Ki goes with tighter binding.

This assay concerns the target Cannabinoid receptor 2 (Homo sapiens, UniProt P34972). Kind of assay: Binding affinity towards cloned human cannabinoid receptor 2.

Chain of Cannabinoid receptor 2 (P34972 whole entry): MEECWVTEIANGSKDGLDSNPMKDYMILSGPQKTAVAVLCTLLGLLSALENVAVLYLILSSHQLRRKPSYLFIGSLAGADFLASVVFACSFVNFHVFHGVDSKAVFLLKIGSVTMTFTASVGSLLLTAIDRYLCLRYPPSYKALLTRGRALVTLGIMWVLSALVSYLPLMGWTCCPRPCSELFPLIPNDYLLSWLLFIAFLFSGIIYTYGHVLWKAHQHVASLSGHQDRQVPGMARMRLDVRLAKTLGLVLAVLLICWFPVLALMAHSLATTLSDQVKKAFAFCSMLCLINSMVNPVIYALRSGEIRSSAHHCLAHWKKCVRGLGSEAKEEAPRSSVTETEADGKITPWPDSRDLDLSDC

`CC1=CCC2C(C1)c1c(O)cc(CCCCCF)cc1OC2(C)C` (stereo not given) showed a Ki of 8.7 nM. In the case of `CCCCC/C=C\C/C=C\C/C=C\C/C=C\CCC(C)C(=O)NCCF` (stereo not given) [2-Methyl-icosa-5,8,11,14-tetraenoic acid (2-fluoro-ethyl)-amide (0689)] it was 130 nM. In the case of `CCCCCc1cc(O)c2c(c1)OC(C)(C)c1ccc(C)cc1-2` [6,6,9-Trimethyl-3-pentyl-6H-benzo[c]chromen-1-ol(Cannabinol)] it was 95 nM; in that of `CCCCCn1ccc(C(=O)c2cccc3ccccc23)c1`, 320 nM; in that of `CCCCCn1c(C)c(C(=O)c2cccc3ccccc23)c2ccccc21` [JWH-007], 3 nM. Compound `CC1=CCC2C(C1)c1c(O)cc(CCCCC(F)(F)F)cc1OC2(C)C` (stereo not given) showed a Ki of 30 nM.

`CCCCC/C=C\C/C=C\C/C=C\C/C=C\CCCC(=O)NCCF` [(5Z,8Z,11Z,14Z)-Icosa-5,8,11,14-tetraenoic acid (2-fluoro-ethyl)-amide] displayed a Ki of 320 nM. Compound `CCCCC/C=C\C/C=C\C/C=C\C/C=C\CCCC(=O)N1CCOCC1` displayed an inhibitory constant (Ki) of 540 nM. With `CCCCC/C=C\C/C=C\C/C=C\C/C=C\CCC(C(=O)NCCO)C(C)C` (stereo not given), the Ki came to 5100 nM. The compound `CCCCC/C=C\C/C=C\C/C=C\C/C=C\CCCC(=O)NCCOC` [(5Z,8Z,11Z,14Z)-Icosa-5,8,11,14-tetraenoic acid (2-methoxy-ethyl)-amide] returned a Ki of 450 nM.
